Two molecules from patent US20120316183A1, “NOVEL SOLVATES OF METHYLCARBAMATE” (Bayer Intellecutal Property GmbH, priority 2009, published 2012) can be followed below.

This series in a line: processability of the solid form (grinding / micronization, flowability, sievability). It counts as physicochemical.

With `COC(=O)Nc1c(N)nc(-c2nn(Cc3ccccc3F)c3ncccc23)nc1N` [modification I, methyl {4,6-diamino-2-[1-(2-fluorobenzyl)-1H-pyrazolo[3,4-b]pyridin-3-yl]pyrimidin-5-yl}carbamate], the grindability entry (micronization step) was “difficult to grind”.

For `COC(=O)Nc1c(N)nc(-c2nn(Cc3ccccc3F)c3ncccc23)nc1N` [semi-ethanol solvate of the formula (Ia), semi-ethanol solvate of methyl {4,6-diamino-2-[1-(2-fluorobenzyl)-1H-Pyrazolo[3,4-b]pyridin-3-yl]pyrimidin-5-yl}carbamate], where the note is “compared to modification I of the compound of the formula (I)”, the flowability and sievability entry was “better flowability and sievability”. Further, the “fineness and tail of coarse material in the micronisate” value (compared to modification I, micronisate) is “higher fine-ness and a reduced tail of coarse material”.
